Source: patent US20260256794A1, “Oral Dynamine Formulations and Methods Therefor” (Ortho-Nutra, LLC, priority 2023, published 2026)

Tests used:
Type in all cases: in vivo, human
subjects [1] = assay: VAS-Ability to focus; set-up: VAS-Ability to focus rating, Mean / VAS-Ability to focus changes from baseline, Mean Difference ± SE / VAS-Ability to focus area under the curve, Mean Difference ± SE / VAS-Ability to focus area under the curve, Mean: scale not given here
Experimental: (§1) The inventors have discovered various compositions and methods of improving various indices of neurological and neuroenergetic functions by administering 100 mg (once daily) dosages of DYNAMINE™ (dosage between 1.0 and 1.4 mg/kg) as described in the following:
(§2) All neuroenergetic tests as listed below were performed and data were collected after 0 and 4 days of assigned supplements (with acute effects also measured at day 4 over 180 minutes):
(§3) All VAS Measurement (Energy, Sustained Energy, Mental Stamina, Ability to Focus, Ability to Concentrate, Motivation to Accomplish Difficult Tasks, Drive, Vigor, Level of Positive Outlook, Mood, Feelings of Well-Being, Tolerate Stress); Day 0: Two tests were completed. The average of both scores was computed and this value was used in all statistical analysis. Day 4 (0 minutes after ingesting dose #4): Two tests were completed. The average of both scores was computed and this value was used in all statistical analysis. Day 4 (60, 120, and 180 minutes after ingesting dose #4): One test was completed at each time point.
(§4) Neuroenergic parameters are inherently subjective, nevertheless significant in human behavior and well-being. To allow for a standardization among different subjects, the following experiments were performed using a visual analog scale using anchor statements (lowest possible/highest possible) in which subjects were asked to rate their subjective experience with respect to the specific neuroenergic parameters tested.
VAS-Ability to focus: In this subjective test, subjects were asked to rate their personal level of energy on a VAS scale using the prompt of “My ability to focus right now is . . . ” (with rating lowest possible to highest possible)”. Results were collected as noted above and Table 13 provides exemplary results for Day 0 versus Day 4 ratings, whereas Table 14 provides exemplary acute results measured at Day 4 over a duration of 180 minutes.

subjects [2] = assay: Hemodynamics: diastolic blood pressure; conditions: for Diastolic blood pressure changes from baseline, Mean Difference ± SE / Diastolic blood pressure changes from baseline, effect size d: between groups (placebo)
Experimental: as §1
Hemodynamics Systolic Blood Pressure, Diastolic Blood Pressure, Heart Rate were taken Pre and Post Stroop Test on Day 0; Pre and Post Stroop Test after 4 Days of Supplementation 0, 60, 120, and 180 minutes after ingestion of 4th dose.
For hemodynamic parameters, systolic blood pressure, diastolic blood pressure, and heart rate were taken pre- and post-Stroop Test on Day 0, and pre- and post-Stroop Test after 4 Days of Supplementation 0, 60, 120, and 180 minutes after ingestion of 4th dose.

subjects [3] = assay: VAS-Drive; set-up: VAS-Drive rating, Mean / VAS-Drive changes from baseline, Mean Difference ± SE: scale not given here; VAS-Drive area under the curve, Mean Difference ± SE / VAS-Drive area under the curve, Mean: unit not given here
Experimental: as §1, §2, §3, §4
VAS-Drive: In this subjective test, subjects were asked to rate their personal level of energy on a VAS scale using the prompt of “My drive right now is . . . ” (with rating lowest possible to highest possible)”. Results were collected as noted above and Table 22 provides exemplary results for Day 0 versus Day 4 ratings, whereas Table 23 provides exemplary acute results measured at Day 4 over a duration of 180 minutes.

subjects [4] = assay: VAS-Positivity; set-up: VAS-Positivity rating, Mean: scale not given here
Experimental: as §1, §2, §3, §4
VAS-Positivity: In this subjective test, subjects were asked to rate their personal level of energy on a VAS scale using the prompt of “My level of positive outlook right now is . . . ” (with rating lowest possible to highest possible)”. Results were collected as noted above and Table 28 provides exemplary results for Day 0 versus Day 4 ratings, whereas Table 29 provides exemplary acute results measured at Day 4 over a duration of 180 minutes.

[5] = 100 mg once daily, Day 4, 0-180 min
[6] = 100 mg once daily, Day 4, 0-180 min, vs Group A (placebo)
[7] = 100 mg once daily, Day 4, 0 min after dose #4
[8] = 100 mg once daily, Day 4, 60 min-0 min, vs Group A (placebo)
[9] = 100 mg once daily, Day 4, 60 min after dose #4
[10] = 100 mg once daily, Day 4, 120 min-0 min, vs Group A (placebo)
[11] = 100 mg once daily, Day 4, 120 min after dose #4
[12] = 100 mg once daily, Day 4, 180 min-0 min, vs Group A (placebo)
[13] = 100 mg once daily, Day 4, 180 min after dose #4
[14] = 100 mg once daily, Day 4, 60 min-0 min
[15] = 100 mg once daily, Day 4, 120 min-0 min
[16] = 100 mg once daily, Day 4, 180 min-0 min

COc1nc2c(c(=O)n1C)n(C)c(=O)n2C [methylliberine, 2-methoxy-1,7,9-trimethylpurine-6,8-dione]
VAS-Ability to focus area under the curve, Mean (subjects [1]; [5]): 1155
VAS-Ability to focus area under the curve, Mean Difference ± SE (subjects [1]; [6]): 55.3 ± 40.9
VAS-Ability to focus area under the curve, effect size d (subjects [1]; [6]): 0.17
VAS-Ability to focus rating, Mean (subjects [1]; [7]): 6.0
VAS-Ability to focus changes from baseline, Mean Difference ± SE (subjects [1]; [8]): 0.35 ± 0.30
VAS-Ability to focus changes from baseline, effect size d (subjects [1]; [8]): 0.34
VAS-Ability to focus rating, Mean (subjects [1]; [9]): 6.4
VAS-Ability to focus changes from baseline, Mean Difference ± SE (subjects [1]; [10]): 0.20 ± 0.26
VAS-Ability to focus changes from baseline, effect size d (subjects [1]; [10]): 0.20
VAS-Ability to focus rating, Mean (subjects [1]; [11]): 6.5
VAS-Ability to focus changes from baseline, Mean Difference ± SE (subjects [1]; [12]): 0.44 ± 0.24
VAS-Ability to focus changes from baseline, effect size d (subjects [1]; [12]): 0.38
VAS-Ability to focus rating, Mean (subjects [1]; [13]): 6.7
VAS-Ability to focus rating, Mean (subjects [1]; Day 0 (before supplementation)): 5.9
Diastolic blood pressure, Mean (subjects [2]; 100 mg once daily, Day 4, 0 min after 4th dose): 77.3 mm Hg
Diastolic blood pressure changes from baseline, Mean Difference ± SE (subjects [2]; [14]): 1.28 ± 1.65 mm Hg
Diastolic blood pressure changes from baseline, effect size d (subjects [2]; [14]): −0.21
Diastolic blood pressure, Mean (subjects [2]; 100 mg once daily, Day 4, 60 min after 4th dose): 76.9 mm Hg
Diastolic blood pressure changes from baseline, Mean Difference ± SE (subjects [2]; [15]): 5.84 ± 1.55 mm Hg
Diastolic blood pressure changes from baseline, effect size d (subjects [2]; [15]): −0.84
Diastolic blood pressure, Mean (subjects [2]; 100 mg once daily, Day 4, 120 min after 4th dose): 75.6 mm Hg
Diastolic blood pressure changes from baseline, Mean Difference ± SE (subjects [2]; [16]): 2.64 ± 1.66 mm Hg
Diastolic blood pressure changes from baseline, effect size d (subjects [2]; [16]): −0.42
Diastolic blood pressure, Mean (subjects [2]; 100 mg once daily, Day 4, 180 min after 4th dose): 77.2 mm Hg
Diastolic blood pressure, Mean (subjects [2]; Day 0 (before supplementation)): 76.6 mm Hg
VAS-Drive area under the curve, Mean (subjects [3]; [5]): 1110
VAS-Drive area under the curve, Mean Difference ± SE (subjects [3]; [6]): 20.4 ± 37.8
VAS-Drive area under the curve, effect size d (subjects [3]; [6]): 0.06
VAS-Drive rating, Mean (subjects [3]; [7]): 5.9
VAS-Drive changes from baseline, Mean Difference ± SE (subjects [3]; [8]): −0.06 ± 0.27
VAS-Drive changes from baseline, effect size d (subjects [3]; [8]): −0.07
VAS-Drive rating, Mean (subjects [3]; [9]): 6.1
VAS-Drive changes from baseline, Mean Difference ± SE (subjects [3]; [10]): −0.16 ± 0.28
VAS-Drive changes from baseline, effect size d (subjects [3]; [10]): −0.15
VAS-Drive rating, Mean (subjects [3]; [11]): 6.2
VAS-Drive changes from baseline, Mean Difference ± SE (subjects [3]; [12]): 0.33 ± 0.35
VAS-Drive changes from baseline, effect size d (subjects [3]; [12]): 0.26
VAS-Drive rating, Mean (subjects [3]; [13]): 6.4
VAS-Drive rating, Mean (subjects [3]; Day 0 (before supplementation)): 5.8
VAS-Positivity area under the curve, Mean (subjects [4]; [5]): 1235
VAS-Positivity area under the curve, Mean Difference ± SE (subjects [4]; [6]): 15.0 ± 43.0
VAS-Positivity area under the curve, effect size d (subjects [4]; [6]): 0.05
VAS-Positivity rating, Mean (subjects [4]; [7]): 6.4
VAS-Positivity changes from baseline, Mean Difference ± SE (subjects [4]; [8]): 0.07 ± 0.19
VAS-Positivity changes from baseline, effect size d (subjects [4]; [8]): 0.08
VAS-Positivity rating, Mean (subjects [4]; [9]): 6.8
VAS-Positivity changes from baseline, Mean Difference ± SE (subjects [4]; [10]): −0.05 ± 0.25
VAS-Positivity changes from baseline, effect size d (subjects [4]; [10]): 0.05
VAS-Positivity rating, Mean (subjects [4]; [11]): 7.0
VAS-Positivity changes from baseline, Mean Difference ± SE (subjects [4]; [12]): 0.46 ± 0.27
VAS-Positivity changes from baseline, effect size d (subjects [4]; [12]): 0.43
VAS-Positivity rating, Mean (subjects [4]; [13]): 7.0
VAS-Positivity rating, Mean (subjects [4]; Day 0 (before supplementation)): 6.6
